Columns and labels:
[1] = system: pacing HF preparations (Yorkshire pigs); assay: Systemic and pulmonary hemodynamics after A1 adenosine receptor antagonist infusion in pacing heart failure pigs (Example 2); type: in vivo, pig
Experimental: Four Yorkshire pigs (25-30 kg, male, Hambone Farms, SC) were implanted with a pacemaker (8329, Medtronic, Inc., Minneapolis, Minn.) in order to induce pacing CHF as described above. Ten to 14 days following recovery from the surgical procedure, a baseline echocardiographic study (ATL Ultramark VI, 2.25 MHz transducer, Bothell, Wash.) was performed and pacing initiated at 240 beats/min for 3 weeks. An additional group of 6 normal control animals were cared for in identical fashion with the exception of the pacing protocol. At the conclusion of the 3-week pacing period, the pacemakers were deactivated and echocardiographic studies were used to image the LV from a right parasternal approach. Following the echocardiographic study, the animals were prepared for acute instrumentation and initiation of the study protocol.
The pigs were anesthetized (i.v. sufentanyl […], etomidate 0.3 mg/kg) and paralyzed (vecuronium 10 mg, tubocurarine 12 mg). A maintenance infusion of 10 ml/kg/hr of lactated ringer's solution was maintained throughout the protocol. A thermodilution catheter (7.5 Fr, Baxter Healthcare Corp., Irvine, Calif.) was positioned in the pulmonary artery via the right external jugular vein and a large bore catheter (7 Fr) was placed in the left external jugular vein for fluid administration. The carotid artery was exposed and cannulated, and the catheter (7 Fr) was advanced to the aortic root for aortic blood pressure measurements and blood sampling drained.
Following instrumentation and a 10-minute stabilization period, baseline hemodynamics were recorded and digitized. Thermodilution derived cardiac output and ejection fraction were obtained from the pulmonary artery catheter in triplicate. Pulmonary and systemic vascular resistances were computed from the pressure measurements and cardiac output and using standard formulae.
Following instrumentation and collection of baseline measurements, the A1 receptor antagonist (3-[4-(2,6-Dioxo-1,3-dipropyl-2,3,6,7-tetrahydro-1H-purin-8-yl)-bicyclo[2.2.2]oct-1-yl]-propionic acid (BG9928), 1 mg/kg) was infused intravenously. Hemodynamic measurements described in the previous section were repeated at 10, 20, 30, 60, 90, and 120 minutes post infusion.
Comparisons of basal hemodynamics between the control and HF groups were performed using Student's t-test. Time-dependent changes in hemodynamics following A1 block infusion were examined by ANOVA. Pair wise comparisons were performed with a Bonferroni adjusted t-test. All statistical analyses were performed using statistical software programs (BMDP Statistical Software Inc. University of California Press, Los Angeles, Calif.). Results are presented as mean ± standard error of the mean (SEM). Values of p<0.05 were considered to be statistically significant.

[2] = system: pacing heart failure preparations (Yorkshire pigs); assay: Systemic and pulmonary hemodynamics after A1 adenosine receptor antagonist infusion in pacing heart failure pigs (Example 1); type: in vivo, pig
Description: Nineteen Yorkshire pigs (20-25 kg, male Hambone Farms, SC) were instrumented in order to induce pacing cardiac heart failure as described in Tomita et al., Circulation, 83, pp. 635-644 (1991). Briefly, under isoflurane anesthesia (3% in 1.5 L/min of oxygen) and through a left thoracotomy, a shielded stimulated electrode was sutured onto the left atrium, connected to a modified programmable pacemaker (8329 Medtronic, Inc., Minneapolis, Minn.) and buried in a subcutaneous pocket. Ten to fourteen days following recovery from the surgical procedure, a baseline echocardiographic study was performed and pacing initiate at 240 beats/min for 3 weeks. An additional group of 7 normal control animals were cared for in identical fashion with the exception of the pacing protocol. At the conclusion of the 3-week pacing period, the pacemakers were de-activated and echocardiographic studies were performed. For these studies, the animals were brought to the laboratory and the pacemakers were deactivated. Two-dimensional and M-mode echocardiographic studies (ATL Ulmark VI, 2.25 MHz transducer, Bothell, Wash.) were used to image the left ventricle from a right parasternal approach. Following the echocardiographic study, the animals were prepared for acute instrumentation and initiation of the study protocol.
The pigs were anesthetized with intravenous boluses of sufentanyl 2.0 μg/kg, etomidate 0.3 mg/kg, and vecuronium 10 mg, after which a tracheostomy was performed. A tubocurarine 12 mg intravenous bolus was administered after obtaining arterial pressure. Anesthesia was maintained throughout the procedure by continuous intravenous infusions of morphine sulfate 3 mg/kg/hr and tubocurarine 2 mg/hr. Etomidate 0.1 mg/kg intravenous was also given at 30 minute intervals. A maintenance infusion of 10 ml/kg/hr of lactated Ringer's solution was maintained throughout the protocol. […] A multi-lumened thermodilution catheter (7.5 Fr, Baxter Healthcare Corp., Irvine, Calif.) was positioned in a pulmonary artery via the right external jugular vein and a large bore catheter (7 Fr) was placed in the left external jugular vein for fluid administration. The carotid artery was exposed and cannulated, and the catheter (7 Fr) was advanced to the aortic root for aortic blood pressure measurements and blood samplings.
Following instrumentation and a 15-minute stabilization period, baseline hemodynamics were recorded and digitized. Thermodilution derived cardiac output and ejection fraction were obtained from the pulmonary artery catheter in triplicate. All measurements were simultaneously recorded with the ventilator temporarily suspended in order to prevent respiratory artifact the recordings. An arterial sample was drawn for electrolyte assays. Pulmonary and systemic vascular resistances were computed from the thermodilution cardiac output and pressure measurements using standard formulae.
Following instrumentation and collection of baseline measurements, the animals were randomly assigned to receive either vehicle infusion (polyethylene glycol, 3 ml intravenous, n=10) or the A1 adenosine receptor antagonist (1 mg/kg 1,8-(3-Oxa-tricyclo[3.2.1.0^2,4]oct-6-yl)-1,3-dipropyl-3,7-dihydro-purine-2,6-dione (BG9719); n=9). Following infusion of vehicle or BG9719, the hemodynamic measurements described in the previous section were repeated at 10, 30, 60, 90, 120 minutes post infusion.
Changes in hemodynamics were initially examined between the control and A1 adenosine receptor antagonist (BG9719) groups by ANOVA. Comparisons between these baseline values following randomization were performed by a 2-way ANOVA. Comparisons of these parameters following infusion were compared using a multi-way ANOVA for repeated measures. Pair-wise comparisons were performed with a Bonferroni adjusted t-test. All statistical analyses were performed using statistical software programs (BMDP Statistical Software Inc. University of California Press, Los Angeles, Calif.).

[3] = BG9928 1 mg/kg intravenous infusion
[4] = BG9719 1 mg/kg infusion, 10-120 min post infusion

CCCn1c(=O)c2[nH]c(C34CCC(CCC(=O)O)(CC3)CC4)nc2n(CCC)c1=O [BG9928, 3-[4-(2,6-Dioxo-1,3-dipropyl-2,3,6,7-tetrahydro-1H-purin-8-yl)-bicyclo[2.2.2]oct-1-yl]-propionic acid]
systemic vascular resistance (SVR), change from baseline ([1]; 1 mg/kg intravenous infusion, 10 min post treatment): no change | pulmonary vascular resistance (PVR), fall from baseline ([1]; 1 mg/kg intravenous infusion, 10 min post treatment, p<0.05): 18% | cardiac output, change from baseline [1, 3]: No change | heart rate, change from baseline [1, 3]: No change | mean arterial pressure, change from baseline [1, 3]: No change

CCCn1c(=O)c2[nH]c(C3CC4CC3C3OC43)nc2n(CCC)c1=O (centres unmarked) [BG9719, 8-(3-Oxa-tricyclo[3.2.1.0^2,4]oct-6-yl)-1,3-dipropyl-3,7-dihydro-purine-2,6-dione]
pulmonary vascular resistance (PVR), decrease from baseline ([2]; 1 mg/kg intravenous infusion, 10 min post treatment, then returned to baseline levels, p<0.05): 38% | pulmonary artery pressure (PAP), change in words ([2]; 1 mg/kg, 30 minutes after treatment, remained depressed): decreased | pulmonary capillary wedge pressure (PCWP), change in words ([2]; 1 mg/kg, 90 minutes after treatment): decreased | pulmonary capillary wedge pressure (PCWP) ([2]; 1 mg/kg, 90 minutes post treatment, p<0.05, mean±SEM): 9 ± 2 mmHg | mean pulmonary artery pressure after treatment ([2]; 1 mg/kg, from 30 min post treatment, baseline 30±1 mmHg, p<0.05, mean±SEM): 23±3 mmHg | systemic vascular resistance, change from baseline ([2]; BG9719 1 mg/kg infusion): No change | cardiac output (CO), change from baseline [2, 4]: No change | heart rate (HR), change from baseline [2, 4]: No change | mean arterial pressure (MAP), change from baseline [2, 4]: No change
